# Source: US20240109843A1, “BENZALDEHYDE COMPOUNDS WITH DIRECT POLYMER DESTABILIZING EFFECTS TO TREAT SICKLE CELL DISEASE” (VIRGINIA COMMONWEALTH UNIVERSITY, priority 2018, published 2024)
# “And” between values parts separate entries of the source, which are not always exact repeats. Identical values can stand only once.
# Key:
# Hb [1] = biological target: T1, Hb (Homo sapiens, UniProt P69905); assay: Drug partitioning studies, fixed and unfixed Hb adducts in non-sickling AA blood; format: cell-based; set-up: Hemoglobin modification, studies using non-sickling AA blood; from tissue; host or cells: non-sickling (AA) human blood, red blood cells; details: 2 mM; for Fixed Adducts (%) / Unfixed Adduct (%): 6 biological replicates; for Partitioning Ratio (%): fixed relative to unfixed adducts
# Experimental: RBC partitioning studies were conducted both for SS RBCs following sickling studies above, or as separate independent studies with non-sickle blood. Briefly, aliquots of blood samples, which had been incubated with test molecules, were lysed either in deionized water (un-fixed), or in water containing 50 mM sodium borohydride (fixed). Samples were subjected to cation exchange HPLC analyses, as described above. Modified […] (Hb adducts) was determined as a proportion of total Hb in each sample, and partitioning ratio was determined as the relative fraction of Hb modification of fixed samples compared to corresponding non-fixed samples. The partitioning ratio is the relative fraction of Hb that was modified intracellularly by molecules that permeated the RBC membrane, as compared to unfixed adducts which reflect Hb binding without RBC membrane permeation.
# Target sequence in this assay (P69905 2-142 limits assumed): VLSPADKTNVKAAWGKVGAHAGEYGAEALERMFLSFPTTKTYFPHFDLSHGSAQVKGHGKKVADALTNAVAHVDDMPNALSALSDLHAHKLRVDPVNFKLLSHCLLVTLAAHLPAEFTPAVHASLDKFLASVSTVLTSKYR
# Target sequence in this assay (P68871 2-147 partner limits assumed): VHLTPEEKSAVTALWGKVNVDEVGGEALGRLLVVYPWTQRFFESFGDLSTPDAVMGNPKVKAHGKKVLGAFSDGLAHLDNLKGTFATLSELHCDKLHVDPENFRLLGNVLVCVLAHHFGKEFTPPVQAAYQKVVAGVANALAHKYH
# Hb [2] = biological target: T1, Hb; assay: Hb modification (drug-adduct formation) in SS blood suspensions by cation-exchange HPLC; format: binding; set-up: Blood suspensions from subjects with homozygous SCD; from tissue; host or cells: blood suspensions (20% hematocrit) from donors with homozygous SCD; lysates of the treated red cells; details: 2 mM, 4 biological replicates
# Experimental: All compounds (Comp 1-13) and comparator molecules (VZHE-039, PP-14, INN-310, and Voxelotor) were evaluated following established procedures. Blood samples from individual donors with homozygous SCD (obtained with informed consent) were diluted using Hemox buffer solution with the addition of glucose (10 mM) and BSA (0.2%) to adjust hematocrit of the blood suspensions to 20%, which standardizes the procedure to normalize the ratio of RBCs to drug, for assay consistency and reproducibility. Briefly, blood suspensions were incubated under room air in the presence of various concentrations of test compounds (0-2 mM) at 37° C. for 1 hour in 96-well round bottom plates. Subsequently, the suspensions were incubated with a hypoxic gas mixture (2.5% Oxygen gas/balance Nitrogen gas) at 37° C. for up to 2 hours prior to fixation with 2% glutaraldehyde solution without exposure to air. The fixated blood aliquots were evaluated by microscopic morphological analysis (image analysis on Image J software) to identify the proportion of sickled and non-sickled RBCs, and sickle inhibition calculated based on the % change from negative control (DMSO).
# The residual samples were then washed in phosphate-buffered saline, and hemolyzed in hypotonic lysis buffer, with or without sodium borohydride (50 mM). Aliquots obtained from the lysates with or without sodium borohydride (to reduce Schiff base adducts) were also assessed for level of Hb modification (drug-adduct formation) by cation-exchange HPLC (Hitachi D-7000 Series, Hitachi Instruments, Inc., San Jose, CA) with a weak cation-exchange column (Poly CAT A: 50 mm×4.6 mm, Poly LC, Inc., Columbia, MD). Hemoglobin isotype peaks are eluted with a linear gradient of phase B from 0% to 80% at A410 nm (Mobile Phase A: 40 mM Bis-Tris, 2 mM KCN, pH 6.9; Phase B: 40 mM Bis-Tris, 2 mM KCN, 0.2 M sodium chloride, pH 6.55). Clarified lysate from normal human adult […] (Hb A), as well as commercial standards containing approximately equal amounts of Hb F, A, S and C (Helena Laboratories, Beaumont, TX), were utilized as reference isotypes. Reduced samples were used to assess “fixed adduct” formation (dependent on RBC membrane permeability), whereas non-reduced samples assessed drug-adduct formation independent of drug permeability.
# Target sequence in this assay (P69905 2-142): as the sequence (P69905 2-142 limits assumed) above
# Target sequence in this assay (P68871 with tags, fused parts or gaps E7V partner): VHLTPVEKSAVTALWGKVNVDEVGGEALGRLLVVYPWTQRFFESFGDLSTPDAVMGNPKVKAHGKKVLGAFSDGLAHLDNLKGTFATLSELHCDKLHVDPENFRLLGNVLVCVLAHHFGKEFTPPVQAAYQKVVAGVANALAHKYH
# [3] = Single-dose oral pharmacokinetics in rats; format: in vivo, Sprague Dawley rats; details: Sprague Dawley, rat; single oral dose 100 mg/kg, male rats, whole blood
# Experimental: Single doses of each compound were administered as oral suspensions by gavage in 0.5% carboxy methylcellulose at 100 mg/kg. Whole blood levels were collected for at least 72 hours after dose administration. Bioanalyses were performed with liquid chromatography-tandem mass spectrometry […].
# Single-dose pharmacokinetics (PK) in male Sprague Dawley (SD) rats (n=4) were assessed for each compound, and the maximum or peak whole blood concentration and area under the curve are shown in Table 5.
# Hb [4] = biological target: T1, Hb; assay: Oxygen equilibrium curve (OEC) studies with normal whole blood; format: cell-based; set-up: Hemoglobin modification, studies using non-sickling AA blood; from tissue; host or cells: non-sickling (AA) human blood, red blood cells; details: normal whole blood, 0.5, 1, 2 mM
# Experimental: Oxygen equilibrium curve (OEC) studies to determine the effect of the compounds on Hb affinity for oxygen were conducted following standard procedure. Whole blood (30% hematocrit) was incubated in the absence or presence of compounds (0.5 mM, 1.0 mM and 2.0 mM) solubilized in DMSO. […] After equilibration, the sample was removed via syringe and aspirated into an ABL 700 series table top automated blood gas analyzer (Radiometer America, Inc., Westlake, OH) to determine total hemoglobin (tHb), hematocrit (Hct), pH, pCO2, partial pressure of oxygen (pO2), and the Hb-O2 saturation (sO2) values. The measured values of pO2 and sO2 at each oxygen saturation level were then subjected to nonlinear regression analysis using the software Scientist (Micromath, Salt Lake City UT) with the following equation: […]
# Aromatic aldehydes are known to prevent hypoxia-induced Hb S polymerization by increasing the Hb affinity for oxygen. We therefore tested the PP compounds in a dose-dependent manner (0.5, 1, 2 mM) for their effect on Hb oxygen binding property. […] These findings confirmed that the potent in vitro activity previously seen in TD7 was at least conserved in the novel PP compounds.
# Target sequence in this assay (P69905 2-142 limits assumed): as the sequence (P69905 2-142 limits assumed) above
# Target sequence in this assay (P68871 2-147 partner limits assumed): as the sequence (P68871 2-147 partner limits assumed) above
# intracellular Hb = biological target: T2, intracellular Hb (Mus musculus, UniProt P01942); assay: In vivo modification of intracellular Hb in wild-type mice; set-up: species or system C57BL/6 mice; details: IP 150 mg/kg, 30% PEG300, 6 h
# T2 construct: from tissue; host or cells: blood (red cell lysates) of dosed C57BL/6 mice
# T2 sequence (P01942 2-142 limits assumed): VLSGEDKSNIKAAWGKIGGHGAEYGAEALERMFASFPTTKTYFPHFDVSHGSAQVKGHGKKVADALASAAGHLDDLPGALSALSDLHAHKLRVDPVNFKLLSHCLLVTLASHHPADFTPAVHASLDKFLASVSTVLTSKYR
# T2 sequence (P02088 2-147 partner limits assumed): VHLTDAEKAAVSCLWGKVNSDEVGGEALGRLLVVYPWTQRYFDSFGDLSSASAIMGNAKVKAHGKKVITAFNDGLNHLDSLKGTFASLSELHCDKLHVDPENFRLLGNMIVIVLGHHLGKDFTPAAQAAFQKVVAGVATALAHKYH
# Experimental: We tested in vivo pharmacologic (pharmacodynamics) effects of select PP compounds in C57BL/6 mice. The animals were treated with a single intraperitoneal (IP) (150 mg/kg body weight) dose of PP6, PP10, PP14, and TD7, which were formulated with 30% PEG300. Blood samples were obtained prior to treatment (0) and 1, 3 and 6 h post-treatment, via submandibular bleeding, and subjected to hemolysis using standard methods. Clarified lysates, free of cell debris and red blood cell ghosts were analyzed by cation-exchange HPLC to determine the levels of drug-modified hemoglobin (adducts); and to conduct oxygen equilibrium studies to determine degrees of shift in p50 values using methodologies described earlier for in vitro studies on human samples. In a subsequent follow-up experiment, a new excipient obtained from Catalent Pharma Solutions was also used to formulate PP14 and used for a single intraperitoneal (IP) and oral (150 mg/kg body weight) dose. Blood samples were obtained prior to treatment (0) and 1, 3 or 5 h post-treatment, via submandibular bleeding, and used to determine the levels of drug-modified hemoglobin (adducts); and to conduct oxygen equilibrium studies to determine degrees of shift in p50 values as described above.
# sickle red blood cells = assay: Antisickling study with human sickle blood under 2.5% oxygen; format: cell-based; details: 0.5, 1 and 2 mM, sickle RBCs
# Experimental: Blood suspensions from subjects with homozygous SCD (resuspended in Hemox™ buffer to a final hematocrit 20%) were incubated under air in the absence or presence of the compounds (0.5 mM, 1 mM and 2 mM) at 37° C. for 1 h to ensure that binding had attained equilibrium. The suspensions were then incubated under hypoxic conditions (2.5% oxygen/97.5% nitrogen) at 37° C. for 1 h. Aliquot samples were fixed with 2% glutaraldehyde solution without exposure to air, and then subjected to microscopic morphological analysis of bright field images (at 40× magnification) of single layer cells on an Olympus BX40 microscope fitted with an Infinity Lite B camera (Olympus), and the coupled Image Capture software. The residual samples were washed in phosphate-buffer saline, and hemolyzed in hypotonic lysis buffer for subsequent Hb-modification and oxygen equilibrium analyses.
# The studies described above were conducted using normal whole blood. Next, we investigated whether the improvement in Hb oxygen affinity and the compounds sustained activity also translated to similar effects in SS blood from SCD patients. […] At 1 mM, PP8 and PP9 inhibited nearly 100% of sickling, while PP2, PP6, PP14 inhibited sickling by more than 70%. […] It is clear that the modifications of the present compounds has led to significant improvement in antisickling activity.
SMILES,Fixed Adducts (%) (Hb [1]),Unfixed Adduct (%) (Hb [1]),Partitioning Ratio (%) (Hb [1]),Hb Modification (%) (Hb [2]),AUC(0-inf) [3],Cmax [3],half-life [3] [h],effect on Hb oxygen binding property (OEC) (Hb [4]),modified Hb (intracellular Hb) [%],sickling inhibition (in words) (sickle red blood cells)
"O=Cc1c(O)cccc1OCc1ccncc1 [Comp 3, 2-hydroxy-6-(pyridin-4-ylmethoxy)benzaldehyde]",60.1 ± 3.0,60.0 ± 3.3,100.1 ± 0.9,74.4 ± 10.6,–,–,–,–,–,–
"O=Cc1c(O)cccc1OCc1cncc(F)c1 [Comp 4, 2-((5-fluoropyridin-3-yl)methoxy)-6-hydroxybenzaldehyde]",85.9 ± 7.1,88.8 ± 6.2,96.9 ± 5.73,92.9 ± 9.8,831000 ng·h/mL and 3360 µM·h,59800 ng/mL and 242 µM,5.9,–,–,–
"O=Cc1c(O)cccc1OCc1cccnc1F [Comp 6, 2-((2-fluoropyridin-3-yl)methoxy)-6-hydroxybenzaldehyde]",67.3 ± 12.1,67.1 ± 10.3,100.0 ± 2.8,73.8 ± 15.4,180000 ng·h/mL and 728 µM·h,12100 ng/mL and 49 µM,8.2,–,–,–
"O=Cc1c(O)cccc1OCc1cccnc1Cl [Comp 7, 2-((2-chloropyridin-3-yl)methoxy)-6-hydroxybenzaldehyde]",59.6 ± 5.7,60.2 ± 5.7,99.0 ± 3.1,73.91 ± 9.8,–,–,–,–,–,–
"O=Cc1c(O)cccc1OCc1ncccc1Cl [Comp 8, 2-((3-chloropyridin-2-yl)methoxy)-6-hydroxybenzaldehyde]",85.6 ± 2.5,84.8 ± 7.5,101.3 ± 6.3,100.0 ± 0.0,269000 ng·h/mL and 1020 µM·h,20000 ng/mL and 76 µM,9.5,–,–,–
"O=Cc1c(O)cccc1OCc1cncnc1 [Comp 10, 2-hydroxy-6-(pyrimidin-5-ylmethoxy)benzaldehyde]",94.8 ± 2.8,96.3 ± 3.0,98.5 ± 2.7,100.0 ± 0.0,693000 ng·h/mL and 3010 µM·h,36200 ng/mL and 157 µM,4.7,–,–,–
"O=Cc1c(O)cccc1OCc1ncccn1 [Comp 11, 2-hydroxy-6-(pyrimidin-2-ylmethoxy)benzaldehyde]",88.2 ± 2.1,87.7 ± 4.3,100.7 ± 3.0,98.1 ± 3.2,–,–,–,–,–,–
"COC(=O)c1ccc(COc2ccc(OC)cc2C=O)nc1 [PP1, Methyl 6-((2-formyl-4-methoxyphenoxy)methyl)nicotinate]",–,–,–,–,–,–,–,minimal effect,–,–
COC(=O)c1ccnc(COc2ccc(OC)cc2C=O)c1 [PP4],–,–,–,–,–,–,–,minimal effect,–,–
"COC(=O)c1ccnc(COc2cccc(O)c2C=O)c1 [PP7, Methyl 2-((2-formyl-3-hydroxyphenoxy)methyl)isonicotinate]",–,–,–,–,–,–,–,most significant activities,–,–
"COC(=O)c1cccc(COc2cccc(O)c2C=O)n1 [PP10, Methyl 6-((2-formyl-3-hydroxyphenoxy)methyl)picolinate]",–,–,–,–,–,–,–,–,9.6±1.9,–
"COC(=O)c1cncc(COc2ccc(OC)cc2C=O)c1 [PP12, Methyl 5-((2-formyl-4-methoxyphenoxy)methyl)nicotinate]",–,–,–,–,–,–,–,most significant activities,–,–
"COc1cc(C=O)ccc1O [vanillin, reference compound]",–,–,–,–,–,–,–,very weak functional effect,–,minimal sickling inhibition
